Experimental data: patent publication US6518423B1, “Benzopiperidine derivatives” (Eisai Co., Ltd., priority 1996, dated 2003)

Structure (SMILES) | melting point
C/C(=C\c1ncn(Cc2ccc3c(c2)Nc2nccnc2S3)c1C)C(N)=O | 280 °C (dec.)
OCc1nccn1Cc1ccc2c(c1)Nc1nccnc1S2 | 247 to 250 °C
Cc1ncn(Cc2ccc3c(c2)Nc2nccnc2S3)c1C(C)O (stereo not drawn) | 178 to 182 °C
c1cn(Cc2ccc3c(c2)Nc2nccnc2O3)cn1 | 252 to 255 °C
O=c1ccn(Cc2ccc3c(c2)Nc2nccnc2S3)c(=O)[nH]1 | 269 to 271 °C
c1cnc2c(c1)ccn2Cc1ccc2c(c1)Nc1nccnc1S2 | 202 to 204 °C
c1cc2ccnc-2n(Cc2ccc3c(c2)Nc2nccnc2S3)c1 | 210 to 214 °C
c1ccc2c(c1)nnn2Cc1ccc2c(c1)Nc1nccnc1S2 | 251 to 258 °C
c1cnc2ncn(Cc3ccc4c(c3)Nc3nccnc3S4)c2c1 | 265 °C (dec.)
c1ccn(Cc2ccc3c(c2)Nc2nccnc2S3)c1 | 197 to 198 °C
c1cnc2c(n1)Nc1cc(Cn3cncn3)ccc1S2 | 223 to 226 °C
C(=C\c1ccc2c(c1)Nc1nccnc1S2)/c1ccncc1 | > 275 °C
OC(c1cncnc1)c1ccc2c(c1)Nc1nccnc1S2 (stereo not drawn) | 218 to 221 °C
OC(c1ccc2c(c1)Nc1nccnc1S2)c1ncccn1 (stereo not drawn) | 105 to 107 °C
CCOC(=O)/C=C/c1cccc(C(O)c2ccc3c(c2)Nc2nccnc2S3)n1 (stereo not drawn) | 160 to 170 °C (dec.)
O=C(O)CC1(O)C2CCCCCC1CN(Cc1ccc3c(c1)Nc1nccnc1S3)C2 (stereo not drawn) | 217 to 218 °C (dec.)
OCCC1C2CCCC1CN(Cc1ccc3c(c1)Nc1nccnc1S3)C2 (stereo not drawn) | 123 to 127 °C
CN(C)S(=O)(=O)NCC1C2CCCC1CN(Cc1ccc3c(c1)Nc1nccnc1S3)C2 (stereo not drawn) | 215 to 219 °C
O=C(O)C1CCC(CNCc2ccc3c(c2)Nc2nccnc2S3)CC1 (stereo not drawn) | 217 to 220 °C
CNS(=O)(=O)CCN(C)Cc1ccc2c(c1)Nc1nccnc1S2 | 143 to 146 °C
O=C(NCc1ccc2c(c1)Nc1nccnc1S2)c1ccncc1 | 249 to 253 °C (dec.)
O=C(NCc1ccc2c(c1)Nc1nccnc1S2)c1cccnc1 | 243 to 245 °C (dec.)
O=C(Nc1nccs1)c1ccc2c(c1)Nc1nccnc1S2 | 320 to 322 °C
CC(C)(CO)C1C2CCCC1CN(Cc1ccc3c(c1)Nc1nccnc1S3)C2 (stereo not drawn) | 181 to 183 °C
CN(C)c1ncnc2ncn(Cc3ccc4c(c3)Nc3nccnc3S4)c12 | 265 to 268 °C
CN(C)c1ncnc2c1nc(C(F)(F)F)n2Cc1ccc2c(c1)Nc1nccnc1S2 | 231 to 233 °C

Structure (SMILES) | melting point
O=c1[nH]cnc2ncn(Cc3ccc4c(c3)Nc3nccnc3S4)c12 | > 275 °C
Cc1nc2cncnc2n1Cc1ccc2c(c1)Nc1nccnc1S2 | 191 to 193 °C
CC1CC(C)CN(c2ncnc3c2ncn3Cc2ccc3c(c2)Nc2nccnc2S3)C1 (stereo not drawn) | 237 to 238 °C
NCCN1CCN(c2ncnc3c2ncn3Cc2ccc3c(c2)Nc2nccnc2S3)CC1 | 226 to 229 °C
c1cnc2c(n1)Nc1cc(Cn3cnc4ncnc(N5CCOCC5)c43)ccc1S2 | 269 to 273 °C
CCc1ncnc2ncn(Cc3ccc4c(c3)Nc3nccnc3S4)c12 | > 275 °C
O=C(O)CCCCCCCCCCSc1ncnc2c1ncn2Cc1ccc2c(c1)Nc1nccnc1S2 | 154 to 156 °C
Cl.c1cnc2c(n1)Nc1cc(CC3=NCCCN3)ccc1S2 | > 280 °C
Cl.N=C(Cc1ccc2c(c1)Nc1nccnc1S2)NCCO | 174 to 175 °C
Cl.c1ccc(CN2CCCN=C2Cc2ccc3c(c2)Nc2nccnc2S3)cc1 | 153 to 155 °C (dec.)
Cl.OC1CN=C(Cc2ccc3c(c2)Nc2nccnc2S3)NC1 (stereo not drawn) | 156 to 163 °C
CC(CCC1CCN(C(=N)Cc2ccc3c(c2)Nc2nccnc2S3)CC1)C(=O)O.Cl (stereo not drawn) | 166 to 171 °C
N#C/N=C(/Cc1ccc2c(c1)Nc1nccnc1S2)NCc1ccccn1 | 195 to 196 °C
N#CN=C(Cc1ccc2c(c1)Nc1nccnc1S2)NCc1ccc(S(N)(=O)=O)cc1 | 241 to 245 °C
N#CN=C(Cc1ccc2c(c1)Nc1nccnc1S2)NO | 253 to 256 °C
N#CN=C(Cc1ccc2c(c1)Nc1nccnc1S2)NCCCC(=O)O | 217 to 218 °C (dec.)
CS(=O)(=O)/N=C/NCc1ccc2c(c1)Nc1nccnc1S2 | 175 to 176 °C
COC(=O)CC1C2CCCC1CN(Cc1ccc3c(c1)N(C(=O)OC)c1nccnc1S3)C2 (stereo not drawn) | 106 to 108 °C
COC(=O)CC1C2CCCC1CN(Cc1ccc3c(c1)N(C(C)=O)c1nccnc1S3)C2 (stereo not drawn) | 160 to 162 °C
OCc1ccc2c(c1)Nc1nccnc1S2 | 187 to 189 °C
ClCc1ccc2c(c1)Nc1nccnc1S2 | 161 to 162 °C
O=S(=O)(NC1CCN(Cc2ccc3c(c2)Nc2nccnc2S3)CC1)c1ccccc1 | 157 to 158 °C
O=C1CCC2(CCN(Cc3ccc4c(c3)Nc3nccnc3S4)CC2)O1 | 199 to 203 °C
NC(=O)C1CCCN1Cc1ccc2c(c1)Nc1nccnc1S2 (stereo not drawn) | 194 to 197 °C
OCCC1CCN(Cc2ccc3c(c2)Nc2nccnc2S3)CC1 | 148 to 152 °C
c1cc2c(cn1)Sc1ccc(CN3CCCCC3)cc1N2 | 163 to 166 °C

Structure (SMILES) | melting point
CS(=O)(=O)N1CCN(Cc2ccc3c(c2)Nc2nccnc2S3)CC1 | 221 to 222 °C
N#CC1CCN(Cc2ccc3c(c2)Nc2nccnc2S3)CC1 | 198 to 199 °C
O=S(=O)(NCCO)NC1CCN(Cc2ccc3c(c2)Nc2nccnc2S3)CC1 | 164 to 166 °C
O=C1CC2(CCN(Cc3ccc4c(c3)Nc3nccnc3S4)CC2)CN1 | 211 to 212 °C
CN(C)S(=O)(=O)NC1CCN(Cc2cnc3c(c2)Nc2nccnc2S3)CC1 | 205 to 210 °C
NS(=O)(=O)N1CCN(Cc2ccc3c(c2)Nc2nccnc2S3)CC1 | 215 to 217 °C (dec.)
N=C(NC1CCN(Cc2ccc3c(c2)Nc2nccnc2S3)CC1)C(=O)O | 186 to 190 °C
CS(=O)(=O)NCC1CCN(Cc2ccc3c(c2)Nc2nccnc2S3)CC1 | 218 to 221 °C
CS(=O)(=O)NCC1CN(Cc2ccc3c(c2)Nc2nccnc2S3)C1 | 84 to 88 °C
O=C(CCCC1CCN(Cc2ccc3c(c2)Nc2nccnc2S3)CC1)Nc1nnn[nH]1 | 190 to 191 °C
CN1C2CCC1CC(NC(=O)CC1CC3(CCN(Cc4ccc5c(c4)Nc4nccnc4S5)CC3)C1)C2 (stereo not drawn) | 181 to 184 °C
CN(C)c1c(N2CCN(Cc3ccc4c(c3)Nc3nccnc3S4)CC2)c(=O)c1=O | 296 to 300 °C (dec.)
CS(=O)(=O)N1CCCN(Cc2ccc3c(c2)Nc2nccnc2S3)CC1 | 158 to 160 °C
c1cnc2c(n1)Nc1cc(CN3CCCCCCC3)ccc1S2 | 133 to 135 °C
c1ccc2c(c1)CCN(Cc1ccc3c(c1)Nc1nccnc1S3)C2 | 188 to 191 °C
O=S(=O)(CCC1CCN(Cc2ccc3c(c2)Nc2nccnc2S3)CC1)N1CCOCC1 | 193 to 194 °C
O=C(O)CCN1CCC(NCc2ccc3c(c2)Nc2nccnc2S3)CC1 | 130 to 134 °C
O=C(O)/C=C1\CCCN(Cc2ccc3c(c2)Nc2nccnc2S3)C1 | 200 to 203 °C
O=C(O)Cc1ccccc1C1CCN(Cc2ccc3c(c2)Nc2nccnc2S3)CC1 | 152 to 154 °C
CC(CCC1(CO)CCN(Cc2ccc3c(c2)Nc2nccnc2S3)CC1)C(=O)O (stereo not drawn) | 105 to 110 °C
C/C(=C\C(=O)O)CC1CCN(Cc2ccc3c(c2)Nc2nccnc2S3)CC1 | 126 to 130 °C
COc1cc(C2CCN(Cc3ccc4c(c3)Nc3nccnc3S4)CC2)ccc1CC(=O)O | 171 to 177 °C (dec.)
O=C(O)C=C1CCN(Cc2ccc3c(c2)Nc2nccnc2S3)CC1 | 214 to 216 °C
O=C(O)C1(c2ccccc2)CCN(Cc2ccc3c(c2)Nc2nccnc2S3)CC1 | > 297 °C
O=C(O)Cc1cc2c(s1)CN(Cc1ccc3c(c1)Nc1nccnc1S3)CC2 | 98 to 105 °C
CN1c2ccccc2Nc2nccnc21 | 229 to 231 °C

Structure (SMILES) | melting point
COCN1c2ccccc2Nc2nccnc21 | 185 to 188 °C
COc1ccc2c(c1)Nc1nccnc1N2C | 198 to 201 °C
Cl.Oc1ccc2c(c1)Nc1nccnc1N2 | > 275 °C
CN1c2ccc(/C=C/C(=O)O)cc2Nc2nccnc21 | 275 °C
COCc1ccc2c(c1)Nc1nccnc1N2C | 169 to 172 °C
CN1c2ccc(C(O)c3nccs3)cc2Nc2nccnc21 (stereo not drawn) | 203 to 204 °C
CC(CCC1C2CCCC1CN(Cc1ccc3c(c1)Nc1nccnc1S3)C2)C(=O)O (stereo not drawn) | 104 to 108 °C
CN1c2ccc(C(=O)c3ccccn3)cc2Nc2nccnc21 | 261 to 262 °C
OCCN1c2ccccc2Nc2nccnc21 | 197 to 204 °C
CN1c2ccc(CNC(N)=O)cc2Nc2nccnc21 | > 275 °C
NC(=O)NCCN1c2ccccc2Nc2nccnc21 | 231 to 233 °C
CN1c2ccc(C#CC(=O)O)cc2Nc2nccnc21 | > 275 °C
CN(C)CC#Cc1ccc2c(c1)Nc1nccnc1N2C | 188 to 189 °C
c1csc(NCc2ccc3c(c2)Nc2nccnc2S3)n1 | 230 to 235 °C
c1cc(CNCc2ccc3c(c2)Nc2nccnc2S3)ccn1 | 174 to 176 °C
c1ccc(CCNCc2ccc3c(c2)Nc2nccnc2S3)nc1 | 179 to 182 °C
FC(F)(F)c1cnc(NCc2ccc3c(c2)Nc2nccnc2S3)c(Cl)c1 | 158 to 161 °C
COC(=O)c1ccc(NCc2ccc3c(c2)Nc2nccnc2S3)nc1 | 140 to 148 °C
Nc1ncccc1NCc1ccc2c(c1)Nc1nccnc1S2 | 225 to 228 °C
CCOC(=O)COc1ccc(NCc2ccc3c(c2)Nc2nccnc2S3)cn1 | 230 to 235 °C
CCOC(=O)CCCCCOc1ccc(NCc2ccc3c(c2)Nc2nccnc2S3)cn1 | 105 to 108 °C
CC(=O)N(Cc1ccc2c(c1)Nc1nccnc1S2)c1cccnc1 | 212 to 214 °C
O=C(Nc1ccccc1)N(Cc1ccc2c(c1)Nc1nccnc1S2)c1cccnc1 | 208 to 210 °C
CC12CCCC(C)(CN(Cc3ccc4c(c3)Nc3nccnc3S4)C1)C2CC(=O)O (stereo not drawn) | 226 to 229 °C
